Experiments:
Details in all cases: 72 h
Caco-2 [1] = test: cell viability relative to DMSO; higher = less toxic
Calu-3 [2] = test: as above
HepG2 [3] = test: as above
U2OS [4] = test: as above
Vero E6 [5] = test: as above
Calu-3 [6] = test: relative viability EC50 (midpoint between 100% and the lowest measured viability); higher = less toxic
HepG2 [7] = test: as above
U2OS [8] = test: as above
Caco-2 [9] = test: drug sensitivity score (DSS) for viability; higher = more toxic; extreme values may be limits of the assay
Calu-3 [10] = test: as above
HepG2 [11] = test: as above
U2OS [12] = test: as above
Vero E6 [13] = test: as above
Vero E6 [14] = test: relative viability EC50 (midpoint between 100% and the lowest measured viability); higher = less toxic

Row | SMILES | cell viability (Caco-2 [1]; 1 nM) [%] | cell viability (Caco-2 [1]; 10 nM) [%] | cell viability (Caco-2 [1]; 100 nM) [%] | cell viability (Caco-2 [1]; 1000 nM) [%] | cell viability (Caco-2 [1]; 10000 nM) [%] | cell viability (Calu-3 [2]; 1 nM) [%] | cell viability (Calu-3 [2]; 10 nM) [%] | cell viability (Calu-3 [2]; 100 nM) [%] | cell viability (Calu-3 [2]; 1000 nM) [%] | cell viability (Calu-3 [2]; 10000 nM) [%] | cell viability (HepG2 [3]; 1 nM) [%] | cell viability (HepG2 [3]; 10 nM) [%] | cell viability (HepG2 [3]; 100 nM) [%] | cell viability (HepG2 [3]; 1000 nM) [%] | cell viability (HepG2 [3]; 10000 nM) [%] | cell viability (U2OS [4]; 1 nM) [%] | cell viability (U2OS [4]; 10 nM) [%] | cell viability (U2OS [4]; 100 nM) [%] | cell viability (U2OS [4]; 1000 nM) [%] | cell viability (U2OS [4]; 10000 nM) [%] | cell viability (Vero E6 [5]; 1 nM) [%] | cell viability (Vero E6 [5]; 10 nM) [%] | cell viability (Vero E6 [5]; 100 nM) [%] | cell viability (Vero E6 [5]; 1000 nM) [%] | cell viability (Vero E6 [5]; 10000 nM) [%] | relative viability EC50 (Calu-3 [6]) [µM] | relative viability EC50 (HepG2 [7]) [µM] | relative viability EC50 (U2OS [8]) [µM] | drug sensitivity score (Caco-2 [9]) | drug sensitivity score (Calu-3 [10]) | drug sensitivity score (HepG2 [11]) | drug sensitivity score (U2OS [12]) | drug sensitivity score (Vero E6 [13]) | relative viability EC50 (Vero E6 [14]) [µM]
1 | Cc1c(NC(=O)OC[C@@H]2COCCN2)cn2ncnc(Nc3ccc4c(cnn4Cc4cccc(F)c4)c3)c12 | 102 | 101 | 85.1 | 88.2 | 69.3 | 97.2 | 96.4 | 92.4 | 64.5 | 26.4 | 89.8 | 104 | 96 | 99.1 | 82.2 | 96.6 | 101 | 99.4 | 96.3 | 79.3 | 98.5 | 103 | 91.7 | 84.1 | 60.7 | 0.988 | > 10 | > 10 | 3 | 8.2 | 0.5 | 1.1 | 3.5 | 
2 | Cc1cc(F)c(Nc2ncnc3cc(OCc4ccccc4)ccc23)cc1O | 101 | 96.6 | 88.4 | 79.4 | 74 | 104 | 95.1 | 89.4 | 104 | 76.9 | 105 | 95.5 | 106 | 100 | 85.5 | 97.9 | 101 | 96.8 | 102 | 72.9 | 99.9 | 103 | 99.3 | 96.2 | 84 | > 10 | > 10 |  | 4 | 0.6 | 0.2 | 0.9 | 0.7 | > 10
3 | OCCNCCCOc1cccc(Cl)c1Cl [2,3-DCPE] | 93.9 | 105 | 106 | 98.7 | 69.4 | 99.1 | 98.6 | 98.1 | 97.5 | 107 | 103 | 96.1 | 89.7 | 97.6 | 13.3 | 105 | 101 | 100 | 101 | 18.1 | 92.5 | 96.1 | 103 | 97.9 | 15.5 | > 10 | 2.96 | 3.21 | 1.5 | 0 | 5.1 | 4.5 | 5 | 2.99
4 | O=C(CCCc1ccc(-c2ccccc2F)cc1)Nc1ccc(O)cc1 [CMPD-1] | 95.6 | 92.4 | 97.5 | 112 | 71.9 | 94.2 | 105 | 99 | 88.8 | 86.3 | 99 | 97.8 | 107 | 99.2 | 42.6 | 94.9 | 99.4 | 94.2 | 74.8 | 36.6 | 97.2 | 95.3 | 99.6 | 97.6 | 95.5 | > 10 | 3.08 | 1.27 | 0.8 | 0.8 | 3.2 | 6.3 | 0 | > 10
5 | CC[C@H](CO)Nc1nc(Nc2cccc(-c3ccccn3)c2)c2ncn(C(C)C)c2n1 [DRF053-(R)] | 99.6 | 86.9 | 91.2 | 93.2 | 67.4 | 94.7 | 94.9 | 90.7 | 104 | 80.3 | 98.8 | 108 | 107 | 94.5 | 66.2 | 102 | 101 | 94.7 | 99.6 | 94.4 | 92 | 92.3 | 92.7 | 89.8 | 81.7 | > 10 |  | > 10 | 2.4 | 0.4 | 2.5 | 0 | 1 | > 10
6 | Cc1cc([N+](=O)[O-])ccc1NS(=O)(=O)c1cc(Cl)ccc1Cl [FH-535] | 107 | 103 | 110 | 87.2 | 60.3 | 104 | 92.4 | 105 | 101 | 93.2 | 100 | 106 | 94.5 | 96.7 | 50.1 | 101 | 97.6 | 93.3 | 96.9 | 89.5 | 98.3 | 102 | 94.1 | 92.8 | 79.2 | > 10 |  | > 10 | 3.8 | 0 | 3.1 | 0 | 0.9 | > 10
7 | CCn1c(=O)c(-c2ccc(Cl)cc2Cl)cc2cnc(Nc3ccc(N4CCNCC4)c(F)c3)nc21 [FRAX486] | 94.9 | 92.4 | 97.7 | 80 | 63.4 | 104 | 100 | 105 | 91.9 | 97.9 | 96.6 | 97.8 | 93.1 | 99.3 | 51.6 | 103 | 99.8 | 101 | 91.6 | 43 | 97 | 102 | 99.6 | 90.9 | 31.7 | > 10 |  | 2.01 | 3.9 | 0 | 2.6 | 4.5 | 5.3 | 2.09
8 | COc1cc2c(cc1-c1c(C)noc1C)ncc1[nH]c(=O)n([C@H](C)c3ccccn3)c12 [I-BET151] | 104 | 87.1 | 89.8 | 81 | 56 | 97.4 | 99.5 | 114 | 75 | 65.3 | 104 | 99.7 | 91.9 | 60.3 | 33.6 | 97.4 | 95.6 | 94.4 | 71.3 | 44.3 | 104 | 105 | 94.6 | 40.5 | 13 |  | 0.671 | 0.89 | 4.9 | 4.5 | 8.6 | 6.3 | 12.2 | 0.607
9 | CC[C@H]1[C@@H](O)[C@@H]2[C@H](CC[C@]3(C)[C@@H]([C@H](C)CCOS(=O)(=O)O)CC[C@@H]23)[C@@]2(C)CC[C@@H](O)C[C@@H]12 [INT-767] |  |  |  |  |  | 110 | 107 | 108 | 105 | 99.5 | 115 | 118 | 96.2 | 99.4 | 111 | 102 | 98.1 | 102 | 101 | 101 |  |  |  |  |  | > 10 | > 10 | > 10 |  | 0 | 0 | 0 |  | 
10 | COc1ccc(-c2sc(NC(=O)C(C)(C)C)nc2C)cc1S(=O)(=O)Nc1ccc(O)cc1 [PI4KIII-beta-inhibitor-1] | 95.6 | 97 | 91.1 | 90.7 | 74.2 | 115 | 102 | 102 | 91.2 | 66.9 | 105 | 103 | 101 | 90 | 87.6 | 94.9 | 99.6 | 96.7 | 93.1 | 79.1 | 102 | 96.4 | 92.9 | 96.1 | 88.8 |  | > 10 | > 10 | 1.8 | 2.8 | 0.5 | 1.1 | 0 | > 10
11 | CC(C)(C)n1nc(-c2ccc(Cl)cc2)c2c(N)ncnc21 [PP-2] | 92.3 | 98.6 | 100 | 88.2 | 54.2 | 104 | 104 | 84.9 | 87 | 37 | 107 | 98 | 92.6 | 103 | 90.7 | 93.4 | 98.4 | 96.7 | 89.7 | 77.3 | 99.4 | 93.5 | 102 | 95.6 | 47 | 1.77 | > 10 | > 10 | 4.2 | 5.4 | 0 | 1.4 | 3.5 | 2.49
12 | COc1ccc(F)c(F)c1C(=O)c1cnc(NC2CCN(S(C)(=O)=O)CC2)nc1N [R547] |  |  |  |  |  |  |  |  |  |  |  |  |  |  |  |  |  |  |  |  |  |  |  |  |  |  |  |  |  | 9 | 16.1 | 10.3 | 10.7 | 
13 | O=C(O)CCCO [SODIUM OXYBATE] |  |  |  |  |  | 97.3 | 99 | 94.7 | 115 | 112 | 82.4 | 105 | 92.8 | 90.8 | 110 | 103 | 101 | 103 | 96.4 | 100 | 93.6 | 100 | 99.1 | 102 | 87.2 | > 10 | > 10 | > 10 |  | 0 | 0 | 0 | 0 | > 10
14 | NC(=O)[C@H]1CCS[C@@H]2C[C@]3(CCCN3C(=O)Cc3ccc(NC(=O)COc4ccc(Cl)cc4Cl)cc3)C(=O)N12 [ST-2825] | 84.7 | 90.3 | 91.9 | 92.9 | 56 | 106 | 96.9 | 96.1 | 99.8 | 91.7 | 96.5 | 101 | 103 | 91.7 | 40.5 | 96.4 | 104 | 97.6 | 103 | 55.6 | 101 | 92.2 | 94.8 | 88.1 | 86.6 | > 10 | 2.05 |  | 3.5 | 0 | 4.6 | 2 | 0.5 | > 10
